According to patent US20140004223A1, “MOUTH-MOISTENING GUM COMPOSITIONS AND PRODUCTS CONTAINING THE SAME” (Three Parkway North, priority 2010, published 2014):

What was measured:
water solubility = type: physicochemical
Text: In some embodiments, one or more ingredients may be encapsulated with an encapsulating material can also modify the release profile of the ingredient.

[1] = taste testing of synthetic compound versus plant extracts; type: in vivo; conditions: based on taste testing, compared with some comparable plant extracts
Text: Synthetic (2E,5Z,8E)-deca-2,6,8-trienoic acid N-isobutyl amide, being more pure than botanical sources, can be distinguished to some extent based on taste sensations. Synthetic (2E,5Z,8E)-deca-2,6,8-trienoic acid N-isobutyl amide can have a purity of at least about 90 percent. In some embodiments, synthetic (2E,5Z,8E)-deca-2,6,8-trienoic acid N-isobutyl amide can provide relatively higher mouth-moistening relative to tingling or heating/cooling sensations, compared to, for example, equivalent amounts of spilanthol in jambu. […] In one embodiment a combination of synthetic (2E,5Z,8E)-deca-2,6,8-trienoic acid N-isobutyl amide and a affinin plant extract is used. For example, within the given range of 75 to 300 ppm the affinin compound, the amount of affinin active provided by synthetic (2E,5Z,8E)-deca-2,6,8-trienoic acid N-isobutyl amide can vary from 20 to 80 wt. % and the amount of (2E,5Z,8E)-deca-2,6,8-trienoic acid N-isobutyl amide provided by plant extract of Heliopsis Longipes can vary from 80 to 20 wt. %.

water solubility (water solubility): not water soluble
SMILES: C/C=C/C=C\CC/C=C/C(=O)NCC(C)C [affinin compound, (2E,5Z,8E)-deca-2,6,8-trienoic acid N-isobutyl amide]
taste profile / tingling [1]: a cleaner profile and/or less tingling
